{"source": "patent US20260166128A1", "about": "“HUMAN AMYLIN ANALOG, AND DERIVATIVE THEREOF AND USE THEREOF” (priority 2022, published 2026)", "test": "Freeze-thaw stability of derivatives (freeze-thaw yield by liquid chromatography)", "assay_type": "physicochemical", "settings": "for Dissolution property: appearance after dissolution at 0.2 mg/ml in 20 mM phosphate buffer solution (PB) (pH 7.0); for Freeze storage property: appearance after overnight storage at −20° C. and thawing to room temperature, 0.2 mg/ml in 20 mM PB (pH 7.0); for Freeze storage yield: concentration of polypeptide after freezing and thawing / concentration before, by liquid chromatography, −20° C. overnight", "description": "The freeze-dried powder of the polypeptide analog derivative prepared in Example 1 was mixed with a buffer solution according to a mass-volume ratio of 0.2 mg/ml, the polypeptide was dissolved with 20 mM phosphate buffer solution (PB) (pH 7.0), the sample was stored at −20° C. for overnight storage, and then the sample was taken out to be restored to room temperature for thawing. During the experiment, property changes of the polypeptide after dissolution and freezing and thawing were observed and recorded respectively, and concentrations of the polypeptide before and after the freezing and thawing were detected by the following liquid chromatography method: Materials and equipment: high-performance liquid chromatographic instrument (Agilent 1200), ultrapure water (18.2 MΩ self-manufactured ultrapure water), acetonitrile (HPLC grade), and trifluoroacetic acid (HPLC grade); and reversed-phase chromatographic column: […] A sample to be tested was centrifuged at 10,000 rpm and 4° C. for 3 minutes, and a supernatant was taken and added into a liquid-phase sample injection bottle. […] A freeze-thaw yield was calculated by the following formula: freeze-thaw yield=concentration of polypeptide after the freezing and thawing/concentration of polypeptide before the freezing and thawing.", "note": "Numbered stars: 1 amine (or outer) side, 2 acyl side, 3 side chain; on linkers, the order of the positions; unused ones are H or OH. Bridge positions count the residues as written; N and C are the ends. Square brackets hold non-standard residues; d marks the D form. Primed or numbered codes have the meaning given here. Side chains are listed from the residue outwards. Peptide text beside a SMILES is read from it. * marks the point of attachment. C20 diacid = O=C(O)CCCCCCCCCCCCCCCCCCC(=O)*; X1 = N[C@@H]1CCN([*:1])[C@@H]1C(=O)[*:2]; γGlu = O=C(O)[C@H](CCC(=O)[*:2])N[*:1]; C12 diacid = O=C(O)CCCCCCCCCCC(=O)*; HOOC(CH2)8CO = O=C(O)CCCCCCCCC(=O)*; Trx′ = not defined here", "data": [{"compound": "CC[C@H](C)[C@H](NC(=O)[C@@H]1CCCN1C(=O)[C@H](CCCCNC(=O)CC[C@H](NC(=O)CCCCCCCCCCCCCCCCCCC(=O)O)C(=O)O)NC(=O)[C@H](CC(C)C)NC(=O)[C@H](CC(N)=O)NC(=O)[C@H](CC(N)=O)NC(=O)[C@H](CO)NC(=O)[C@H](CO)NC(=O)[C@H](Cc1c[nH]cn1)NC(=O)[C@H](CCCNC(=N)N)NC(=O)[C@H](CC(C)C)NC(=O)[C@H](Cc1ccccc1)NC(=O)[C@H](CC(=O)O)NC(=O)[C@H](C)NC(=O)[C@H](CC(C)C)NC(=O)[C@H](CCCNC(=N)N)NC(=O)[C@H](CCC(N)=O)NC(=O)[C@@H](NC(=O)[C@H](C)NC(=O)[C@@H]1CSSC[C@H](NC(=O)[C@@H](N)CCCNC(=N)N)C(=O)N[C@@H](CC(N)=O)C(=O)N[C@@H]([C@@H](C)O)C(=O)N[C@@H](C)C(=O)N[C@@H]([C@@H](C)O)C(=O)N1)[C@@H](C)O)C(=O)N[C@@H](CC(C)C)C(=O)N1CCC[C@H]1C(=O)N1CCC[C@H]1C(=O)N[C@H](C(=O)N[C@@H](CC(N)=O)C(=O)N[C@H](C(=O)NCC(=O)N[C@@H](CO)C(=O)N[C@@H](CC(N)=O)C(=O)N[C@H](C(=O)N1CCC[C@H]1C(N)=O)[C@@H](C)O)C(C)C)[C@@H](C)O", "note": "[PD042] (H-RCNTATCATQRLADFLRHSSNNLK([γGlu-C20 diacid])PILPPTNVGSNTP-NH2; disulfide 2-7 (inferred); N-terminus assumed)", "values": [{"measurement": "Dissolution property", "value": "Clear"}, {"measurement": "Freeze storage property", "value": "Clear"}, {"measurement": "Freeze storage yield", "value": 95.19, "unit": "%"}]}, {"compound": "CC[C@H](C)[C@H](NC(=O)[C@@H]1CCCN1C(=O)[C@H](CCCCNC(=O)CC[C@H](NC(=O)CCCCCCCCCCCCCCCCCCC(=O)O)C(=O)O)NC(=O)[C@H](CC(C)C)NC(=O)[C@H](CC(N)=O)NC(=O)[C@H](CC(N)=O)NC(=O)[C@H](CO)NC(=O)[C@H](CO)NC(=O)[C@H](Cc1c[nH]cn1)NC(=O)[C@H](CCCNC(=N)N)NC(=O)[C@H](CC(C)C)NC(=O)[C@H](Cc1ccccc1)NC(=O)[C@H](CC(=O)O)NC(=O)[C@H](C)NC(=O)[C@H](CC(C)C)NC(=O)[C@H](CCCNC(=N)N)NC(=O)[C@H](CCC(N)=O)NC(=O)[C@@H](NC(=O)[C@H](C)NC(=O)[C@@H]1CSSC[C@H](NC(=O)[C@@H](N)CCCNC(=N)N)C(=O)N[C@@H](CC(N)=O)C(=O)N[C@@H]([C@@H](C)O)C(=O)N[C@@H](C)C(=O)N[C@@H]([C@@H](C)O)C(=O)N1)[C@@H](C)O)C(=O)N[C@@H](CC(C)C)C(=O)N1CCC[C@H]1C(=O)N1CCC[C@H]1C(=O)N[C@H](C(=O)N[C@@H](CC(N)=O)C(=O)N[C@H](C(=O)NCC(=O)N[C@@H](CO)C(=O)N[C@@H](CC(N)=O)C(=O)N[C@H](C(=O)N1CCC[C@H]1C(N)=O)[C@@H](C)O)C(C)C)[C@@H](C)O", "note": "[PD048] (H-RCNTATCATQRLADFLRHSSNNLK([γGlu-C20 diacid])PILPPTNVGSNTP-NH2; disulfide 2-7 (inferred); N-terminus assumed)", "values": [{"measurement": "Dissolution property", "value": "Clear"}, {"measurement": "Freeze storage property", "value": "Clear"}, {"measurement": "Freeze storage yield", "value": 102.16, "unit": "%"}]}, {"compound": "CC[C@H](C)[C@H](NC(=O)[C@@H]1CCCN1C(=O)[C@H](CCCCNC(=O)CC[C@H](NC(=O)CCCCCCCCCCCCCCCCCCC(=O)O)C(=O)O)NC(=O)[C@H](CC(C)C)NC(=O)[C@H](CC(N)=O)NC(=O)[C@H](CC(N)=O)NC(=O)[C@H](CO)NC(=O)[C@H](CO)NC(=O)[C@H](Cc1c[nH]cn1)NC(=O)[C@H](CCCNC(=N)N)NC(=O)[C@H](CC(C)C)NC(=O)[C@H](Cc1ccccc1)NC(=O)[C@H](CCC(=O)O)NC(=O)[C@H](C)NC(=O)[C@H](CC(C)C)NC(=O)[C@H](CCCNC(=N)N)NC(=O)[C@H](CCC(N)=O)NC(=O)[C@@H](NC(=O)[C@H](C)NC(=O)[C@@H]1CSSC[C@H](NC(=O)[C@@H](N)CCCNC(=N)N)C(=O)N[C@@H](CC(N)=O)C(=O)N[C@@H]([C@@H](C)O)C(=O)N[C@@H](C)C(=O)N[C@@H]([C@@H](C)O)C(=O)N1)[C@@H](C)O)C(=O)N[C@@H](CC(C)C)C(=O)N1CCC[C@H]1C(=O)N1CCC[C@H]1C(=O)N[C@H](C(=O)N[C@@H](CC(N)=O)C(=O)N[C@H](C(=O)NCC(=O)N[C@@H](CO)C(=O)N[C@@H](CC(N)=O)C(=O)N[C@H](C(=O)N1CC[C@@H](N)[C@H]1C(N)=O)[C@@H](C)O)C(C)C)[C@@H](C)O", "note": "[PD061] (H-RCNTATCATQRLAEFLRHSSNNLK([γGlu-C20 diacid])PILPPTNVGSNT[X1]-NH2; disulfide 2-7; N-terminus assumed)", "values": [{"measurement": "Dissolution property", "value": "Clear"}, {"measurement": "Freeze storage property", "value": "Clear"}, {"measurement": "Freeze storage yield", "value": 100.32, "unit": "%"}]}, {"compound": "CC[C@H](C)[C@H](NC(=O)[C@@H]1CCCN1C(=O)[C@H](CCCCNC(=O)CC[C@H](NC(=O)CCCCCCCCCCCCCCCCCCC(=O)O)C(=O)O)NC(=O)[C@H](CC(C)C)NC(=O)[C@H](CC(N)=O)NC(=O)[C@H](CC(N)=O)NC(=O)[C@H](CO)NC(=O)[C@H](CO)NC(=O)[C@H](Cc1c[nH]cn1)NC(=O)[C@H](CCCNC(=N)N)NC(=O)[C@H](CC(C)C)NC(=O)[C@H](Cc1ccccc1)NC(=O)[C@H](CC(=O)O)NC(=O)[C@H](C)NC(=O)[C@H](CC(C)C)NC(=O)[C@H](CCCNC(=N)N)NC(=O)[C@H](CCC(N)=O)NC(=O)[C@@H](NC(=O)[C@H](C)NC(=O)[C@@H]1CSSC[C@H](NC(=O)[C@@H](N)CCCNC(=N)N)C(=O)N[C@@H](CC(N)=O)C(=O)N[C@@H]([C@@H](C)O)C(=O)N[C@@H](C)C(=O)N[C@@H]([C@@H](C)O)C(=O)N1)[C@@H](C)O)C(=O)N[C@@H](CC(C)C)C(=O)N1CCC[C@H]1C(=O)N1CCC[C@H]1C(=O)N[C@H](C(=O)N[C@@H](CC(N)=O)C(=O)N[C@H](C(=O)NCC(=O)N[C@@H](CO)C(=O)N[C@@H](CC(N)=O)C(=O)N[C@H](C(=O)N1CC[C@@H](N)[C@H]1C(N)=O)[C@@H](C)O)C(C)C)[C@@H](C)O", "note": "[PD062] (H-RCNTATCATQRLADFLRHSSNNLK([γGlu-C20 diacid])PILPPTNVGSNT[X1]-NH2; disulfide 2-7; N-terminus assumed)", "values": [{"measurement": "Dissolution property", "value": "Clear"}, {"measurement": "Freeze storage property", "value": "Clear"}, {"measurement": "Freeze storage yield", "value": 102.63, "unit": "%"}]}, {"compound": "PD133: KCNTATCATQRLADFLRHSSNNLGPILPPTNVGSNT-trans-Hyp-NH2; N-terminal; Trx + C20 diacid ({C20 diacid-Trx′}-KCNTATCATQRLADFLRHSSNNLGPILPPTNVGSNT-{trans‑Hyp-NH2}; disulfide 2-7 (inferred); reading uncertain; also: printed as KCNTATCATQRLADFLRHSSNNLGPILPPTNVGSNT-trans-Hyp-NH2)", "values": [{"measurement": "Dissolution property", "value": "Clear"}, {"measurement": "Freeze storage property", "value": "Clear"}, {"measurement": "Freeze storage yield", "value": 98.24, "unit": "%"}]}, {"compound": "PD135: KCNTATCATQRLADFLRHSSNNLGPILPPTNVGSNT-trans-Hyp-NH2; N-terminal, 1K-ϵ; γGlu + C10 diacid ({HOOC(CH2)8CO-γGlu}-K([γGlu-HOOC(CH2)8CO])CNTATCATQRLADFLRHSSNNLGPILPPTNVGSNT-{trans‑Hyp-NH2}; disulfide 2-7 (inferred))", "values": [{"measurement": "Dissolution property", "value": "Clear"}, {"measurement": "Freeze storage property", "value": "Clear"}, {"measurement": "Freeze storage yield", "value": 110.57, "unit": "%"}]}, {"compound": "PD136: KCNTATCATQRLADFLRHSSNNLGPILPPTNVGSNT-trans-Hyp-NH2; N-terminal, 1K-ϵ; γGlu + C12 diacid ({C12 diacid-γGlu}-K([γGlu-C12 diacid])CNTATCATQRLADFLRHSSNNLGPILPPTNVGSNT-{trans‑Hyp-NH2}; disulfide 2-7 (inferred))", "values": [{"measurement": "Dissolution property", "value": "Clear"}, {"measurement": "Freeze storage property", "value": "Clear"}, {"measurement": "Freeze storage yield", "value": 108.07, "unit": "%"}]}]}
